{
  "source": "patent US11273152B2",
  "about": "“TRPV2 antagonists” (Instituto de Medicina Molecular João Lobo Antunes, priority 2017, dated 2022)",
  "key": {"TRPV1": {"target": "TRPV1 (Homo sapiens, UniProt Q8NER1)", "sequence (Q8NER1 whole entry)": "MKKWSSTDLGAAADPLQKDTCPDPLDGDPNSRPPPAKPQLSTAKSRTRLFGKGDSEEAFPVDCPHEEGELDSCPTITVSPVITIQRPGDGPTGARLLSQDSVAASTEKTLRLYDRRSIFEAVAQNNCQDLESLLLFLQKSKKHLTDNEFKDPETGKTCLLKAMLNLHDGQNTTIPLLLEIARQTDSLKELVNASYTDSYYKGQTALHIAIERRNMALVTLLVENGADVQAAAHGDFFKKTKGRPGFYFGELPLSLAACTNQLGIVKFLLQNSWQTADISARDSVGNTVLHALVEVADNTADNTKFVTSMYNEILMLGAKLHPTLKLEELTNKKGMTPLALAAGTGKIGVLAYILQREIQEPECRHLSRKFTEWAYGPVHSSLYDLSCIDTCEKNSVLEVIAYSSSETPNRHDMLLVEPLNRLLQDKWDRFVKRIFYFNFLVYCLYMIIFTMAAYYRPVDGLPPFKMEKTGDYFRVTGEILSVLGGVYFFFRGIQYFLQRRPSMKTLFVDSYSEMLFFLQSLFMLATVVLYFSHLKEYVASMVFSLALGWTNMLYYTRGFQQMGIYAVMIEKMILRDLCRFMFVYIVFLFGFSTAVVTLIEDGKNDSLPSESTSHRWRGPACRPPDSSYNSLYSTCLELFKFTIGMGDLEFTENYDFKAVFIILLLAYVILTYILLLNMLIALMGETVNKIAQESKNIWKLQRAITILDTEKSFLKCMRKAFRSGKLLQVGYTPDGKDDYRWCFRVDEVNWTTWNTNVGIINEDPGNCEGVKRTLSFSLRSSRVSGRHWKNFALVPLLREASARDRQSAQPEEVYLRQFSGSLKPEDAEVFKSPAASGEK", "assay": "Fluorescence cell-based assay, TRPV1", "settings": "calcium 5 dye, duplicate", "procedure": "(§1) The assays were performed at SB Discovery (Glasgow, UK) on a fee-for-service basis. Human TRP cells were trypsinised, counted and seeded in black, clear-bottomed 96 well plates at a density of 50,000 cells per well in 100 μL volume and incubated overnight. Next day, the cells were loaded with calcium 5 dye or membrane potential dye. TRPV1-5, TRPA1, TRPM2, TRPM3, and TRPM8 were tested using the calcium 5 dye. TRPC1, TRPC3-7, and TRPM4-5 were tested using the membrane potential dye. Both dye solutions were made up in HEPES buffered Hank's balanced salt solution (HBSS). Dye solution (90 μL) was added to the wells and incubated at 37° C. for 1 hour. Test compounds and standard inhibitors (10 μL) were then added to the wells and incubated at room temperature for 10 minutes. The plates were then placed in the flexstation and fluorescence monitored every 1.52 seconds. After 20 seconds agonist was added and the fluorescence monitored for 2 minutes at 485 nm/525 nm and 530 nm/565 nm, Ex/Em, for the calcium 5 dye and the membrane potential dye respectively. Controls-TRPV1: capsazepine; TRPV2: tranilast; TRPV3: ruthenium red; TRPV4: ruthenium red; TRPV5: Gd^3+; TRPA1, ruthenium red; TRPC1: Gd^3+; TRPC3: Pyr3; TRPC4: ML 204; TRPC5: ML 204; TRPC6: ML 204; TRPC7: SKF 96365; TRPM2: 2-APB; TRPM3: Mef acid; TRPM4: clotrimazole; TRPM5: TPPO; TRPM8: 2-APB. […]"}, "TRPV3": {"target": "TRPV3 (Homo sapiens, UniProt Q8NET8)", "sequence (Q8NET8 whole entry)": "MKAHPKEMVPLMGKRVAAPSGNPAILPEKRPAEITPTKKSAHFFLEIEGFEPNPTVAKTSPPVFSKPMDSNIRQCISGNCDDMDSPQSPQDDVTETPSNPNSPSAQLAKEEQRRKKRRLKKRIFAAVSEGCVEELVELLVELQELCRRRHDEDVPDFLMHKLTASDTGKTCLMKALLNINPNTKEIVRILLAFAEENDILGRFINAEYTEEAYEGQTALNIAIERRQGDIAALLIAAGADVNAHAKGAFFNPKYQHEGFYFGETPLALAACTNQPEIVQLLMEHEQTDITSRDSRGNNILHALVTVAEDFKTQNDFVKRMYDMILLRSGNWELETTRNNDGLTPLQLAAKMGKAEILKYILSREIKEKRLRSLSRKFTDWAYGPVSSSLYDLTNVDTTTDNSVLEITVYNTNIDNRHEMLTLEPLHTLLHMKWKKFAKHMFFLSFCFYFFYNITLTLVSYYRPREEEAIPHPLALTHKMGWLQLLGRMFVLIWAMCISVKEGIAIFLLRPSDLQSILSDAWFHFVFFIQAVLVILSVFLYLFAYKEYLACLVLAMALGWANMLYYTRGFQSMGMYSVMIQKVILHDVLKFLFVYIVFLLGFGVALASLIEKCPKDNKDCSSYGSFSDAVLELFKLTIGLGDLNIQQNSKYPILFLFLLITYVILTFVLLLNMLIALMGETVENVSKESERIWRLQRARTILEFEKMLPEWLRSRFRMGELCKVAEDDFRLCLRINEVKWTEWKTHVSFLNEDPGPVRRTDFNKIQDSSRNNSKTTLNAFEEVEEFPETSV", "assay": "Fluorescence cell-based assay, TRPV3", "settings": "calcium 5 dye, duplicate", "procedure": "as §1"}, "TRPV4": {"target": "TRPV4 (Homo sapiens, UniProt Q9HBA0)", "sequence (Q9HBA0 whole entry)": "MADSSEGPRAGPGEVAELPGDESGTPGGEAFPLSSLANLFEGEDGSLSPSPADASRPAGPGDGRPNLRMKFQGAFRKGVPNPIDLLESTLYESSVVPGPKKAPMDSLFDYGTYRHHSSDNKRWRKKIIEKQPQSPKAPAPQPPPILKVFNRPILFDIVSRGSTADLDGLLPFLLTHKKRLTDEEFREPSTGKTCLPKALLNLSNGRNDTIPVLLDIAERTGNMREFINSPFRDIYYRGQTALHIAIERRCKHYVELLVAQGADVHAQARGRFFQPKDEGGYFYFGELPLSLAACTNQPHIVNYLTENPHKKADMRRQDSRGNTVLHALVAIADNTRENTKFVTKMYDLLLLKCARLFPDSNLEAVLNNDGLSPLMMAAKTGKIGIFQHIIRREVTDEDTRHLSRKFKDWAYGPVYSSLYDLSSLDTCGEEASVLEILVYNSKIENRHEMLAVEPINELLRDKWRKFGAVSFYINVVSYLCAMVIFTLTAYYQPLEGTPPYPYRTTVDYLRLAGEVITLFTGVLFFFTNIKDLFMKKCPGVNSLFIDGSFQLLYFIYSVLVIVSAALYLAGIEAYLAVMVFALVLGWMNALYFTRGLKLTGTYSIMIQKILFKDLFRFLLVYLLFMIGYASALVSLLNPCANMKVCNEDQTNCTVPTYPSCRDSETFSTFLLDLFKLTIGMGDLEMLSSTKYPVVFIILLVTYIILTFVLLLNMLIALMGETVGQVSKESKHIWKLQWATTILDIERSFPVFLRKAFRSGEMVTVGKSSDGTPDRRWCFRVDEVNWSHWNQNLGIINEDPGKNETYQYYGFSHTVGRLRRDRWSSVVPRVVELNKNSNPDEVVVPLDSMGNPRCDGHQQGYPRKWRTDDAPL", "assay": "Fluorescence cell-based assay, TRPV4", "settings": "calcium 5 dye, duplicate", "procedure": "as §1"}, "TRPA1": {"target": "TRPA1 (Homo sapiens, UniProt O75762)", "sequence (O75762 whole entry)": "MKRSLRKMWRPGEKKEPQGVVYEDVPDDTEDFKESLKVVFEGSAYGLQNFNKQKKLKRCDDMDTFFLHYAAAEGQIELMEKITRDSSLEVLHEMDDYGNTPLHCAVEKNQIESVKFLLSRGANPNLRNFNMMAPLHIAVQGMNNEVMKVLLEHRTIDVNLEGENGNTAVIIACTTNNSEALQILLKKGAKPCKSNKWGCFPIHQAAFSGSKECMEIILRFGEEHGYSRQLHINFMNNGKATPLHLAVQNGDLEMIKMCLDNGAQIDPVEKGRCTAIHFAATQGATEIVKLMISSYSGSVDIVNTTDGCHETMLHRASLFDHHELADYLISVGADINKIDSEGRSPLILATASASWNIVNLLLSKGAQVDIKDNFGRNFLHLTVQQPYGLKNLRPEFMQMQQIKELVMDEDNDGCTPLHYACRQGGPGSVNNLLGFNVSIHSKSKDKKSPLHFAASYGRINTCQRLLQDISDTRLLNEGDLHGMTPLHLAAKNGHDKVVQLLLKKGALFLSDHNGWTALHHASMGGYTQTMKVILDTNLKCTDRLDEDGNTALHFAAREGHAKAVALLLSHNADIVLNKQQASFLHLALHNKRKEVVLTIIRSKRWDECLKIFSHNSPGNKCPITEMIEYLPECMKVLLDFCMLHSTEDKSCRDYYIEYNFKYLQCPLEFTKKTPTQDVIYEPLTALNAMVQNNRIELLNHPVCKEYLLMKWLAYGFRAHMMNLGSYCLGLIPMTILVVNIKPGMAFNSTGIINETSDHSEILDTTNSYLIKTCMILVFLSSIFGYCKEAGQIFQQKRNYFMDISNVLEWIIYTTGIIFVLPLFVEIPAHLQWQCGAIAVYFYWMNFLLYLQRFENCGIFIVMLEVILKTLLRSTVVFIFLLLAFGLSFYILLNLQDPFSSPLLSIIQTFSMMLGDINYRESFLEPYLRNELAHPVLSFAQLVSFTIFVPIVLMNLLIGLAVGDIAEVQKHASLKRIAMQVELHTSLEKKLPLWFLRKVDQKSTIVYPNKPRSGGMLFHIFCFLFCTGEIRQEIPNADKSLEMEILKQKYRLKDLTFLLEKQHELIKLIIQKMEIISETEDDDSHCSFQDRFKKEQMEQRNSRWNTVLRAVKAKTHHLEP", "assay": "Fluorescence cell-based assay, TRPA1", "settings": "calcium 5 dye, spread in log units, duplicate", "procedure": "as §1"}, "[1]": {"system": "human, ligand-gated TRP channels", "assay": "TRP channel panel screen, activation", "format": "cell-based", "settings": "TRPV, TRPC, TRPM, TRPA panel"}, "[2]": {"target": "T1, human TRPV2-RFP fusion protein (Homo sapiens, UniProt Q9Y5S1)", "T1 construct": "Itaru Kojima, Gunma University; host or cells: HEK293, transient", "T1 sequence (Q9Y5S1 whole entry, the tested form may be a part)": "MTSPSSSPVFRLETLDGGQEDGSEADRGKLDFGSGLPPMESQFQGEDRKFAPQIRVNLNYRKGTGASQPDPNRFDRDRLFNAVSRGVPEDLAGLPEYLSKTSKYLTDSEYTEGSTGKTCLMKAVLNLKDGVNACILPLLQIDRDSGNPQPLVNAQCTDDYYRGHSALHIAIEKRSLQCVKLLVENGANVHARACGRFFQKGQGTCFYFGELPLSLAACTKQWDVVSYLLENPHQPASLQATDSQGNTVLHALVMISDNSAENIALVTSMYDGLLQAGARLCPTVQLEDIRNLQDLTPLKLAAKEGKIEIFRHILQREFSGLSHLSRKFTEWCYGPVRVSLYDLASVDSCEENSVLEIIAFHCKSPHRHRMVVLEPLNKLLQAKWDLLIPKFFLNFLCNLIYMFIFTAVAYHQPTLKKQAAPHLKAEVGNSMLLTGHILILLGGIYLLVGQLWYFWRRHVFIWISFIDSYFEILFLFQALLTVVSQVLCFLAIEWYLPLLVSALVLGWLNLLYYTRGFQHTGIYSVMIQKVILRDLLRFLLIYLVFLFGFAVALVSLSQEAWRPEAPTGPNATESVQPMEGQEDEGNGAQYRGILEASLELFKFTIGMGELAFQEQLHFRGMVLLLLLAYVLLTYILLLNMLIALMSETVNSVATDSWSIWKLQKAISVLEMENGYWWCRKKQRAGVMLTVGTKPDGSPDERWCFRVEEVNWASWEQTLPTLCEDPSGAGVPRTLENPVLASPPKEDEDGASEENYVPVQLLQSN", "assay": "Intracellular calcium imaging in HEK293 transfected with TRPV2-RFP", "format": "cell-based", "settings": "CBD 4 μM; 1 at 5 μM; 300 s post stimulation", "procedure": "Cells (ATCC) were grown to 50% confluency in DMEM (Gibco) supplemented with 10% FBS (Gibco), GlutaMax (Gibco), MEM and NEAA (Gibco), 4.5 g/L glucose and 0.11 g/L sodium pyruvate. Cells were seeded in μ-ibidi 8 well plates and transfected with TRPV2-RFP^34 (kindly gifted by Prof. Itaru Kojimu Gunma University, Japan). After 48 h of incubation, cells were subjected to calcium imaging. Intracellular calcium measurements were performed with Fura-2 AM (Life Technologies) and modified from previously described studies.^12 In short, 1 hour before the measurement, cells were loaded with 5 μM Fura-2-AM for 45 minutes. Cell medium was replaced by Tyrod's solution (119 mM NaCl, 5 mM KCl, 2 mM CaCl2, 2 mM MgCl2, 6 g/L glucose, 25 mM HEPES pH 7.4). Simultaneously, the respective treatment was added to the cells (final concentration of 1% DMSO (control), 5 μM piperlongumine and 10 μM tranilast) and cells were allowed to re-adjustment for 15 minutes. Fura-2 AM emissions from 340 nm and 380 nm excitation were recorded for 1 minute before TRPV2 was activated by addition of 4 μM or 20 μM cannabidiol (CBD). Image analysis was done using the MetaFluor Analyst software. The statistical analysis was performed with astatsa.com. After calcium imaging acquisition, the cells were immediately fixed with 4% paraformaldehyde for 15 min. […]"}, "[3]": {"assay": "Dynamic light scattering, colloidal aggregation", "format": "physicochemical", "settings": "water, 25° C.", "procedure": "Dynamic light scattering (Zetasizer Nano S, Malvern, UK) was used to determine compound colloidal aggregation. The particle sizes were measured at 25° C. Water solubility was measured as described elsewhere with successive measurements within 60 minutes.^35 A 100 mM stock solution of piperlongumine was prepared in DMSO, following dilution to deionized water to obtain an analyte solution of 100 μM (0.1% DMSO). Colloidal aggregation was measured through sequential dilutions."}, "rabbit TRPV2 orthologue": {"system": "rabbit TRPV2 orthologue", "assay": "Isothermal titration calorimetry, rabbit TRPV2", "format": "binding", "settings": "rabbit TRPV2 constructs; 100 μM"}, "PC3 cell line": {"system": "PC3 cell line", "assay": "Cell viability, PC3", "format": "cell-based", "settings": "5 and 10 μM, 24 hours", "procedure": "5,000 cells/well were seeded in 96 well plates with DMEM containing 2% FBS. The next day piperlongumine was added at various concentrations. […] At 24, 48 and 72 hours the media was removed and replaced with CellTiter-Blue (Promega, 1:20 in media). The plate was incubated for 90 minutes before measuring fluorescence intensity."}, "U251 cells": {"system": "U251 cells", "assay": "Viability of U251 cells transiently over-expressing hTRPV2", "format": "cell-based, human", "settings": "5 μM PL, 24 hours, p=0.0002, n=9, listed as PL", "procedure": "50,000 U251 cells were seeded in each well of a 24 well plate. The next day cells were transfected with hTRPV2-RFP plasmid. After incubating for 48 hours the media was changed and PL was added at 5 and 10 μM. 24 hours later cell viability was assessed using CellTitre-Blue (Promega). Transfection efficiency was assessed using flow cytometry.\nCells were harvested from plates by washing with media (HEK293) or TrypLE express (Gibco). The media was removed after centrifugation and the cells were washed twice with binding buffer before being incubated for 30 minutes at room temperature with Annexin V-APC (eBiosciences, 1:100) and 7-AAD (Pharmigen, 1:50). Samples were diluted with binding buffer and analyzed by flow cytometry using BD LSRFortessa X-20 with FACS Diva software. Samples with single stains were used as controls."}},
  "note": "“Also recorded” adds a separate entry of the source.",
  "data": [
    {"smiles": "COc1cc(/C=C/C(=O)N2CCC=CC2=O)cc(OC)c1OC", "note": "[Compound 1, piperlongumine]", "values": [
      {"measurement": "IC50", "setting": "TRPV1", "value": "> 100", "unit": "µM"},
      {"measurement": "IC50", "setting": "TRPV3", "value": "> 100", "unit": "µM"},
      {"measurement": "IC50", "setting": "TRPV4", "value": "> 100", "unit": "µM"},
      {"measurement": "IC50", "setting": "TRPA1", "value": "39 ± 0.15", "unit": "µM"},
      {"measurement": "Activation of the assayed TRP channels", "setting": "[1]", "value": "did not activate any of the assayed channels"},
      {"measurement": "Inhibition of CBD evoked calcium influx in transfected HEK293 cells", "setting": "[2]", "value": "significant difference between control and 1 (p<0.001)"},
      {"measurement": "Colloidal aggregation (dynamic light scattering)", "setting": "[3]", "value": "absence of colloidal aggregate-induced inhibition"},
      {"measurement": "Binding by isothermal titration calorimetry", "setting": "rabbit TRPV2 orthologue", "value": "did not bind"},
      {"measurement": "Cell viability", "setting": "PC3 cell line", "value": "cell viability was compromised"},
      {"measurement": "Viability of hTRPV2-transfected cells vs non-transfected controls", "setting": "U251 cells", "value": "reduced viability compared to the non-transfected controls; also recorded: increases PL toxicity"}
    ]}
  ]
}
